Data taken from ChEMBL document CHEMBL4354844, “Discovery of Balovaptan, a Vasopressin 1a Receptor Antagonist for the Treatment of Autism Spectrum Disorder” (J Med Chem, 2020).
Active and inactive are the calls of the source. No cut-off for these calls is given here.

Key:
[1] = Selectivity ratio of Kb for antagonist activity at human V2 receptor to Kb for antagonist activity at human Gq5s-coupled V1a receptor expressed in CHO cells
[2] = Intrinsic clearance in rat liver microsomes assessed per mg protein; assay type: ADME, Microsome; conditions: read-out: CLH
[3] = Intrinsic clearance in human liver microsomes assessed per mg protein; assay type: ADME, Microsome; conditions: read-out: CLH
[4] = Selectivity ratio of Kb for antagonist activity at human […] receptor to Kb for antagonist activity at human Gq5s-coupled V1a receptor expressed in CHO cells
[5] = molecular target: Vasopressin V1a receptor (Homo sapiens) (UniProt P37288); assay: Antagonist activity at human Gq5s-coupled V1a receptor expressed in CHO cells assessed as inhibition of vasopressin-induced calcium flux preincubated for 20 mins followed by vasopressin addition and measured for 5 mins by fluo-4-AM dye based FLIPR assay; assay type: functional, cell-based
[6] = Water/octanol distribution coefficient, log D of the compound at pH 7.4 measured after 18 hrs by LC-MS analysis; assay type: physicochemical
[7] = molecular target: MDR1 (ABCB1, P-glycoprotein) (Homo sapiens, UniProt P08183); assay: Substrate activity at human MDR1 expressed in LLC-PK1 cells assessed as efflux ratio of permeability at 1 uM measured after 3.5 hrs by lucifer yellow based scintillation counting or HPLC method; assay type: ADME, cell-based
[8] = Half life in iv dosed human; assay type: ADME, organism-based; conditions: in vivo
[9] = system: Rattus norvegicus; assay: Neuroprotective activity in stress hyperresponsive Fischer F344 rat assessed as increase in perfusion in substantia nigra at 30 mg/kg, iv administered as bolus dose via catheter by ASL-based MRI analysis; assay type: functional, organism-based
[10] = system: Rattus norvegicus; assay: Neuroprotective activity in stress hyperresponsive Fischer F344 rat assessed as increase in perfusion in hypothalamus at 30 mg/kg, iv administered as bolus dose via catheter by ASL-based MRI analysis; assay type: functional, organism-based
[11] = Volume of distribution at steady state in iv dosed rat; assay type: ADME, organism-based; conditions: in vivo, read-out: Vdss
[12] = Half life in iv dosed rat; assay type: ADME, organism-based; conditions: in vivo
[13] = system: Rattus norvegicus; assay: Neuroprotective activity in iv dosed stress hyperresponsive Fischer F344 rat assessed as improvement in neural activity pattern administered as bolus dose via catheter by ASL-based MRI analysis; assay type: functional, organism-based
[14] = system: Rattus norvegicus; assay: Neuroprotective activity in stress hyperresponsive Fischer F344 rat assessed as increase in perfusion in ventral tegmental area at 30 mg/kg, iv administered as bolus dose via catheter by ASL-based MRI analysis; assay type: functional, organism-based
[15] = Clearance in iv dosed rat relative to hepatic blood flow; assay type: ADME, organism-based; conditions: in vivo
[16] = system: Rattus norvegicus; assay: In vivo receptor occupancy at V1a receptor in stress hyperresponsive Fischer F344 rat at 30 mg/kg, iv administered as bolus dose via catheter; assay type: functional
[17] = system: Rattus norvegicus; assay: Neuroprotective activity in stress hyperresponsive Fischer F344 rat assessed as increase in perfusion in raphe nuclei at 30 mg/kg, iv administered as bolus dose via catheter by ASL-based MRI analysis; assay type: functional, organism-based

Sequence of Vasopressin V1a receptor (Homo sapiens) (P37288 whole entry, looked up): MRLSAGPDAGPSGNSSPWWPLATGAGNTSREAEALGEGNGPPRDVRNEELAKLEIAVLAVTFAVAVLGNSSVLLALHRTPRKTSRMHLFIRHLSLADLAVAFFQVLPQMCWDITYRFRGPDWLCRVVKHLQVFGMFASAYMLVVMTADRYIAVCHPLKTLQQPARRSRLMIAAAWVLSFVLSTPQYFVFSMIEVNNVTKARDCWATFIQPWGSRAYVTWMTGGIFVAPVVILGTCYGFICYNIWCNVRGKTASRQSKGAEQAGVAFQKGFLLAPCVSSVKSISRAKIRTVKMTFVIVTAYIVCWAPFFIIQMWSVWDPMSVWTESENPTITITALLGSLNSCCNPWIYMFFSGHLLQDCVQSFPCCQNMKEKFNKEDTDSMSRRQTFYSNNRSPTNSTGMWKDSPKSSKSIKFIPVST
Sequence of MDR1 (ABCB1, P-glycoprotein) (P08183 whole entry): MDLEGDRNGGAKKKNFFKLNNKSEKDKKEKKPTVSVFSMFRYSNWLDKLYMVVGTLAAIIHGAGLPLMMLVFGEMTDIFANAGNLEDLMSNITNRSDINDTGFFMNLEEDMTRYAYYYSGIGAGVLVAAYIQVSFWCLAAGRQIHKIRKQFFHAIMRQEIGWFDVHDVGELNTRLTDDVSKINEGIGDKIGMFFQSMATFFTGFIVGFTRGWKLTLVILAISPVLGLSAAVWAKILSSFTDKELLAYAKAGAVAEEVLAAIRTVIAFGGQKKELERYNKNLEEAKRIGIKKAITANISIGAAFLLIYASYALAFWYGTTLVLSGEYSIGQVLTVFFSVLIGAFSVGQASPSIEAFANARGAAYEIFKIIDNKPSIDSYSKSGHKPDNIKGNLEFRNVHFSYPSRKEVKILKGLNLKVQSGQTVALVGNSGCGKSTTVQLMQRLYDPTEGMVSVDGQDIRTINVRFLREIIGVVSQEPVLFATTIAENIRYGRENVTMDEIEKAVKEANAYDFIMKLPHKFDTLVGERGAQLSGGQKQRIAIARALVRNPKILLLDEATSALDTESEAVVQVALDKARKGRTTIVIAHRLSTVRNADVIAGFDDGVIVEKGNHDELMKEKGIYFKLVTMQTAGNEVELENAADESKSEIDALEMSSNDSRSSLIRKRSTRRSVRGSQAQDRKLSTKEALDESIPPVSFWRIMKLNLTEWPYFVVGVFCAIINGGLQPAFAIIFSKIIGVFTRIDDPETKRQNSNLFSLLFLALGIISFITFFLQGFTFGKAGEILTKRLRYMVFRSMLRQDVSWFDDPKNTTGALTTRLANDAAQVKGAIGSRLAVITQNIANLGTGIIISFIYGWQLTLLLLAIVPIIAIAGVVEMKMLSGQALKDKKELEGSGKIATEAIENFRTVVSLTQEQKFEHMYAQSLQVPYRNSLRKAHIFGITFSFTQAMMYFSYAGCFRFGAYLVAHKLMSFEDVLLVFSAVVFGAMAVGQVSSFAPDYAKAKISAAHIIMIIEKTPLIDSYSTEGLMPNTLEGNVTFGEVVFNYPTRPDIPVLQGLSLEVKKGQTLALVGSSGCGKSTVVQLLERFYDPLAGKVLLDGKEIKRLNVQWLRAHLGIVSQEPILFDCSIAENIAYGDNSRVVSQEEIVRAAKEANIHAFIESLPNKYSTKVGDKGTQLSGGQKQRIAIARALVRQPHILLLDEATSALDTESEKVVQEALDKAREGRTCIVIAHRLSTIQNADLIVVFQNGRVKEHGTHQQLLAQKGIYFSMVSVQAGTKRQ

| SMILES | Selectivity ratio [1] | Selectivity ratio [4] | pKb [5] | logD at 18 h [6] | further results |
| --- | --- | --- | --- | --- | --- |
| CN1Cc2cc(Cl)ccc2-n2c(nnc2[C@H]2CC[C@@]3(CC2)OCc2ccccc23)C1 | 669 | 236 | 9.2 | – | microsomal CLint [2]: 1000 µL/min/mg; microsomal CLint [3]: 72 µL/min/mg |
| CN(C)S(=O)(=O)N1Cc2cc(Cl)ccc2-n2c(nnc2[C@H]2CC[C@H](Oc3ccccc3)CC2)C1 | 445 | 190 | 9.5 | 4.1 | – |
| CN1Cc2cc(Cl)ccc2-n2c(nnc2N2CCC3(CC2)OCc2ccccc23)C1 | 218 | 127 | 9.6 | – | microsomal CLint [2]: 718 µL/min/mg; microsomal CLint [3]: < 10 µL/min/mg |
| CC(=O)N1Cc2cc(Cl)ccc2-n2c(nnc2[C@H]2CC[C@H](Oc3ccccc3)CC2)C1 | 1055 | 538 | 9.5 | 2.9 | – |
| CN1Cc2cc(Cl)ccc2-n2c(nnc2C2CC=C(c3ccccc3)CC2)C1 (racemic) | 90 | 22 | 9.3 | – | – |
| CN1Cc2cc(Cl)ccc2-n2c(nnc2[C@H]2CC[C@H](n3nnc4ccccc43)CC2)C1 | – | – | – | 2.4 | efflux ratio at 3.5 h, 1 µM [7]: 10.9 |
| CN1Cc2cc(Cl)ccc2-n2c(nnc2N2CCC3(CC2)OCCc2ccccc23)C1 | 44 | 10 | 8.8 | – | microsomal CLint [2]: 550 µL/min/mg; microsomal CLint [3]: < 10 µL/min/mg |
| CN1Cc2cc(Cl)ccc2-n2c(nnc2N2CCC(O)(c3ccccc3)CC2)C1 | 38 | 35 | 8.6 | – | microsomal CLint [2]: 435 µL/min/mg; microsomal CLint [3]: < 10 µL/min/mg |
| CN1Cc2cc(Cl)ccc2-n2c(nnc2[C@H]2CC[C@H](Oc3ccccc3)CC2)C1 | 629 | 289 | 9.5 | 3.2 | – |
| Clc1ccc2c(c1)CNCc1nnc([C@H]3CC[C@H](Oc4ccccc4)CC3)n1-2 | 523 | 430 | 8.7 | 2.7 | efflux ratio at 3.5 h, 1 µM [7]: 4.3 |
| Cc1cccc([C@H]2CC[C@H](c3nnc4n3-c3ccc(Cl)cc3CN(C)C4)CC2)n1 | – | – | – | 2.5 to 3.2 | – |
| CN(C)CCn1cc(C(=O)N2CCC3(CC2)OCc2ccccc23)c2ccc(Cl)cc21 [RO-5028442] | – | – | – | – | half-life [8]: 8 h |
| OCCN1Cc2cc(Cl)ccc2-n2c(nnc2[C@H]2CC[C@H](Oc3ccccc3)CC2)C1 | 1091 | 677 | 9.6 | 2.7 | – |
| CS(=O)(=O)N1Cc2cc(Cl)ccc2-n2c(nnc2[C@H]2CC[C@H](Oc3ccccc3)CC2)C1 | 573 | 191 | 9.5 | 3.1 | – |
| CN1Cc2cc(Cl)ccc2-n2c(nnc2[C@H]2CC[C@]3(CC2)OCc2ccccc23)C1 | 19 | 5 | 9.1 | – | microsomal CLint [2]: 206 µL/min/mg; microsomal CLint [3]: 10 µL/min/mg |
| CN1Cc2cc(Cl)ccc2-n2c(nnc2[C@H]2CC[C@H](c3ccccc3)CC2)C1 | 17 | 4 | 9.5 | – | – |
| CN1Cc2cc(Cl)ccc2-n2c(nnc2[C@H]2CC[C@H](c3ncc(F)cc3F)CC2)C1 | – | – | – | 2.5 to 3.2 | – |
| CN1Cc2cc(Cl)ccc2-n2c(nnc2[C@H]2CC[C@H](c3noc4ccccc43)CC2)C1 | – | – | – | > 3 | efflux ratio at 3.5 h, 1 µM [7]: 1.4 |

| SMILES | Selectivity ratio [1] | Selectivity ratio [4] | pKb [5] | logD at 18 h [6] | further results |
| --- | --- | --- | --- | --- | --- |
| CN1Cc2cc(Cl)ccc2-n2c(nnc2[C@H]2CC[C@H](c3cccc(Cl)n3)CC2)C1 | – | – | – | 2.5 to 3.2 | – |
| Cc1onc([C@H]2CC[C@H](c3nnc4n3-c3ccc(Cl)cc3CN(C)C4)CC2)c1C | – | – | – | – | efflux ratio at 3.5 h, 1 µM [7]: 3.8 |
| CN1Cc2cc(Cl)ccc2-n2c(nnc2[C@H]2CC[C@H](c3ncccc3F)CC2)C1 | – | – | – | 2.5 to 3.2 | – |
| Clc1ccc2c(c1)CN(C1CCC1)Cc1nnc([C@H]3CC[C@H](Oc4ccccc4)CC3)n1-2 | 179 | 113 | 9.3 | > 3 | – |
| CN1Cc2cc(Cl)ccc2-n2c(nnc2N2CCC3(CC2)COCc2ccccc23)C1 | 167 | 14 | 9.3 | – | microsomal CLint [2]: 949 µL/min/mg; microsomal CLint [3]: 22 µL/min/mg |
| CN1Cc2cc(Cl)ccc2-n2c(nnc2[C@H]2CC[C@H](c3ccccn3)CC2)C1 | 1081 | 863 | 9.6 | – | efflux ratio at 3.5 h, 1 µM [7]: 4.4 |
| CN1Cc2cc(Cl)ccc2-n2c(nnc2[C@H]2CC[C@H](C3=NOCC3)CC2)C1 | – | – | – | 1 | efflux ratio at 3.5 h, 1 µM [7]: 6.1 |
| CN1Cc2cc(Cl)ccc2-n2c(nnc2C2CCN(c3ccccn3)CC2)C1 | 2478 | 2415 | 8.9 | – | microsomal CLint [2]: 72 µL/min/mg; microsomal CLint [3]: < 10 µL/min/mg |
| CN1Cc2cc(Cl)ccc2-n2c(nnc2[C@H]2CC[C@H](Nc3ccccn3)CC2)C1 | – | – | – | – | efflux ratio at 3.5 h, 1 µM [7]: 14 |
| Cc1nnc(-c2ccc(-c3ccccc3)cc2)n1-c1ccccc1OCCCCCCN1CCN(C)CC1 | 67 | 34 | 8.7 | – | – |
| CN1Cc2cc(Cl)ccc2-n2c(nnc2N2CCC3(CC2)SCc2ccccc23)C1 | 65 | 9 | 9 | – | microsomal CLint [2]: 493 µL/min/mg; microsomal CLint [3]: 24 µL/min/mg |
| CN(C)CC(=O)N1Cc2cc(Cl)ccc2-n2c(nnc2[C@H]2CC[C@H](Oc3ccccc3)CC2)C1 | 963 | 1025 | 9.2 | 2.5 | – |
| CN1Cc2cc(Cl)ccc2-n2c(nnc2-c2ccc(-c3ccccc3)cc2)C1 | 30 | 13 | 8.6 | – | Activity [9]: Active; Activity [10]: Active; Vd [11]: 4 to 6 L/kg; half-life [12]: 1.5 h; Activity [13]: Dose-dependent effect; Activity [14]: Active; clearance [15]: 50 to 60%; Occ [16]: >90%; Activity [17]: Active; Kb [5]: 12 nM |
| CC(C)N1Cc2cc(Cl)ccc2-n2c(nnc2[C@H]2CC[C@H](Oc3ccccc3)CC2)C1 | 535 | 224 | 9.4 | – | – |
| CC(C)(C)OC(=O)N1Cc2cc(Cl)ccc2-n2c(nnc2[C@H]2CC[C@H](Oc3ccccc3)CC2)C1 | 19 | 17 | 8.5 | – | – |
| CN1Cc2cc(Cl)ccc2-n2c(nnc2[C@H]2CC[C@H](c3ncccc3Cl)CC2)C1 | – | – | – | 2.5 to 3.2 | – |
| CN1Cc2cc(Cl)ccc2-n2c(nnc2[C@H]2CC[C@H](c3ccc(F)cn3)CC2)C1 | – | – | – | 2.5 to 3.2 | – |
| Cc1cc(C)nc([C@H]2CC[C@H](c3nnc4n3-c3ccc(Cl)cc3CN(C)C4)CC2)n1 | – | – | – | 2 | – |
